Measured values from patent US12257290B2, “PIC1 inhibition of myeloperoxidase oxidative activity in an animal model” (priority 2018, dated 2025).
Ends that are not written are not given here.

Columns and labels:
Assay type in all cases: biochemical
[1] = tested on: complement activation in normal human serum (NHS); experiment: Ovalbumin-antiovalbumin immune complex-initiated complement activation in normal human serum (C5a, iC3b, SC5b-9 ELISA)
Method: Immune complex activation of NHS was performed as follows. NHS was stimulated with three different types of immune complexes (IC) to induce complement activation. Heat-aggregated IgG was generated by incubating intravenous immune globulin at 50 mg/ml at 63° C. for 30 min [26]. Ovalbumin-antiovalbumin immune complexes were made by incubating 0.01 ml anti-ovalbumin antibody with an equal volume of ovalbumin, at 0.25 mg/nil, at 37° C. for 30 minutes and then storing at 4° C. overnight. C1 immune complexes were formed by incubating 0.02 ml anti-C1q goat sera with 5 μl of C1, at 200 μg/ml, at 30° C. for 30 minutes and then placing in an ice water bath. For C5a and C5b-9 assays, activation of NHS was performed by pre-incubating 5% NHS with titrating concentrations of PA-dPEG24 in 0.3 ml of GVBS^++ buffer for 30 minutes at room temperature. […]
ELISA was performed as follows. […] Colorimetric detection was performed with TMB, stopped with H2SO4 and read on a BioTek Synergy HT plate reader at 450 nm.
To provide confirmation of the results with heat-aggregated IgG, the antigen-antibody immune complex most often utilized in animal models of complement activation, ovalbumin and antiovalbumin [27, 28], was then tested. The ovalbumin-antiovalbumin immune complexes were used to stimulate complement activation in NHS and the same three effectors, C5a, iC3b and C5b-9, were measured. […]

[2] = tested on: complement activation in normal human serum (NHS); experiment: C1-antiC1q immune complex-initiated complement activation in normal human serum (C5a, iC3b, SC5b-9 ELISA)
Method: Immune complex activation of NHS was performed as follows. NHS was stimulated with three different types of immune complexes (IC) to induce complement activation. Heat-aggregated IgG was generated by incubating intravenous immune globulin at 50 mg/ml at 63° C. for 30 min [26]. Ovalbumin-antiovalbumin immune complexes were made by incubating 0.01 ml anti-ovalbumin antibody with an equal volume of ovalbumin, at 0.25 mg/nil, at 37° C. for 30 minutes and then storing at 4° C. overnight. C1 immune complexes were formed by incubating 0.02 ml anti-C1q goat sera with 5 μl of C1, at 200 μg/ml, at 30° C. for 30 minutes and then placing in an ice water bath. For C5a and C5b-9 assays, activation of NHS was performed by pre-incubating 5% NHS with titrating concentrations of PA-dPEG24 in 0.3 ml of GVBS^++ buffer for 30 minutes at room temperature. Then […] of either heat-aggregated IVIg, or ovalbumin IC, or 5 μI of C1-antiC1q IC was added to the mix for 30 min. at 37° C. This reaction was stopped with the addition of an equal volume of GVBS^−−. For iC3b detection, 1% NHS was used and the rest of the protocol remained the same.
ELISA was performed as follows. Samples were assayed using C5a, iC3b, and SC5b-9 ELISAs. A C5a ELISA kit (R&D Systems) was used per the manufacturer's instructions. ELISAs for iC3b and SC5b-9 were performed as previously described. In iC3b ELISA, a goat anti-human C3 antibody (Complement Technology, Tyler TX) was used in for capture, a mouse anti-human iC3b antibody (Quidel, San Diego CA) for probing, and a goat anti-mouse HRP antibody for detection. In SC5b-9 ELISA, a rabbit anti-human SC5b-9 antibody (Complement Technology) was used for capture, a mouse anti-human SC5b-9 monoclonal antibody (Quidel) for probing, and a chicken anti-mouse HRP antibody for detection. Colorimetric detection was performed with TMB, stopped with H2SO4 and read on a BioTek Synergy HT plate reader at 450 nm.
Due to the importance of anti-C1q antibodies in a subset of patients with SLE, immune complexes with human C1 and anti-C1q antibodies (goat) were generated. […]

[3] = biological target: T1, MPO (Homo sapiens, UniProt P05164); experiment: MPO-mediated oxidation of TMB (FIG. 16); settings: FIG. 16, dose-response, increasing MPO concentrations
T1 sequence (P05164 49-745): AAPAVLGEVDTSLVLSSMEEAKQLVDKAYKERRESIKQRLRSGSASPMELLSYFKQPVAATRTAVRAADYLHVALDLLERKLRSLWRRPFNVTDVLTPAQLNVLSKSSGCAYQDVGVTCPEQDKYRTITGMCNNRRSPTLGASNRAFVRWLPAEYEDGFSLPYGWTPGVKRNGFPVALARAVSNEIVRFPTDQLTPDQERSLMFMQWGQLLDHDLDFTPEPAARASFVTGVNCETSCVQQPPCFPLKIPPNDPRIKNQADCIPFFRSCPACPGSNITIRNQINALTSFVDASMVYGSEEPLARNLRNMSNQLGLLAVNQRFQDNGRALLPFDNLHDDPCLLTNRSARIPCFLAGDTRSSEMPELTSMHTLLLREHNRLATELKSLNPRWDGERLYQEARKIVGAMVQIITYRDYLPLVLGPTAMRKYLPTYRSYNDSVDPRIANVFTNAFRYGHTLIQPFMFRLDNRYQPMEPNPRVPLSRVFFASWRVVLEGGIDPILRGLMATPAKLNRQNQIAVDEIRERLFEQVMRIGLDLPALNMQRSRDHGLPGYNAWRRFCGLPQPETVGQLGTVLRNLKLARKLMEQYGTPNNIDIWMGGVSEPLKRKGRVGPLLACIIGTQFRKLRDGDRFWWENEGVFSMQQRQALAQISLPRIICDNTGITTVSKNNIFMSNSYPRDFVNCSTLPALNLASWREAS
Text: FIG. 16 is a graph showing PIC1 dose-response inhibition of MPO-mediated oxidation of TMB for increasing concentrations of MPO.
PA-dPEG24 can inhibit the peroxidase effect of MPO in clinical CF sputum samples ex vivo as well as for purified MPO in vitro. […] PA-dPEG24 can inhibit NET formation in vitro, such as NET formation stimulated by any of phorbol 12-myristate 13-acetate (PMA), purified MPO, and immune complex-activated human sera.

Substance: IALILEPICCQERAA-dPEG24 (cysteine pairing not given here) [PA-dPEG24, 15-amino acid PEGylated peptide, 24 PEG moieties at the C-terminus]
- measured SC5b-9 ([1]; 2 mM PA-dPEG24): at the lower limit of detection
- PA-dPEG24 concentration giving statistically significant inhibition of each complement effector (C5a, iC3b, C5b-9) ([1]; ovalbumin-antiovalbumin in NHS, P<0.03 vs immune complex alone): ≥ 0.25 mM
- C1-antiC1q generation of iC3b ([2]; 2 mM PA-dPEG24, P<0.02): inhibited by 2 mM PA-dPEG24 (P<0.02) to a level similar to NHS baseline
- PA-dPEG24 concentration inhibiting C1-antiC1q generation of SC5b-9 ([2]; P<0.03): ≥ 0.13 mM
- C1-antiC1q generation of C5a in NHS ([2]; at each concentration, P<0.03): dose-dependently inhibited
- MPO-mediated oxidation of TMB [3]: inhibits MPO-mediated oxidation
